Test results published in patent US20100093641A1, “SILK PROTEIN-MIMICKING PEPTIDES AND COMPOSITIONS FOR PREVENTING OR TREATING CRANIAL NEUROPATHIES COMPRISING THE SAME” (BRAINGUARD CO.,LTD., priority 2006, published 2010).
No end group written: not given here.

What was measured:
dopaminergic neurons = test: Dopaminergic neuronal cell death induced by 6-OHDA, methyl green histochemical staining; type: in vivo; conditions: 6-OHDA injected mice; SMPs 5 mg/kg intraperitoneally for 2 weeks; FIG. 1
Description: To analyze neuroprotective effects of the present peptides SMPs, their influence on the death of dopaminergic neurons, a main cause of Parkinson's disease, was tested. 6-OHDA (6-hydroxydopamine) was injected into brain tissues using a stereotaxic system and the death of dopaminergic neurons was observed by histochemcial staining.
5-week old male mice (SAMTAKO, Korea) were used. Four-week old mice were purchased and adapted for one week, followed by inducing the death of neuronal cells using a stereotaxic system (KOFT, CA, USA). In these experiments, 6-OHDA (3 μg/μl in normal saline) was injected into the desired region (0.0 mm posterior to bregma; 2.0 mm lateral to midline; 3.0 mm ventral to the dura) by use of the stereotaxic system, resulting in establishment of animal models. 6-OHDA was injected into substantial nigra in which neurites of dopminergic neurons are connected and sustained death of dopminergic neurons is well induced. After injection of 6-OHDA, 5 mg/kg of SMPs were intraperitoneally administered for 2 weeks. Thereafter, the test mice were fixed using 4% paraformaldehyde. Following the dissection of brain tissues from test mice, they were washed with PBS containing 4% paraformaldehyde for 24 hr and then dehydrated for 4 days using 15%, 20%, 25% and 30% sucrose solutions. The brain tissues were sliced by a freezing microtome. […]

[1] = system: Alzheimer's disease animal models; test: Passive avoidance test after amyloid beta injection; type: in vivo, rat; conditions: amyloid beta injected; 5 mg/kg i.p. for 2 weeks; FIG. 4
Description: This experiment was carried out according to the passive avoidance test to examine whether the SMPs prevents the declines in learning and memory abilities by neurotoxic substances. Before performing learning test, the amyloid beta protein was injected into animals through the ventral lateral region using a stereotaxic system, resulting in establishing Alzheimer's disease animal models. 3-day later, 5 mg/kg of SMPs were intraperitoneally administered for 2 weeks. Automated shuttle box (Model PACS-30, Columbus Instruments International Company) was used as test device. The shuttle box was divided into two rooms with the same area (19″ L×9″ W×10.875″ H) by middle door (3″ L×2.625″ W), and their floors were equipped with current-generating device. Each room might be lighted a 20 W light bulb on hinged plexiglass lid. A white rat might enter a dark room through the door. Noise was control below 60 dB and the test was performed in the dark room. The rat was initially placed in a lighted room and moved to a dark room when the door was opened. At this time, the door was automatically closed and light was turned off. […] Two weeks after injection of the amyloid beta protein through the ventral lateral region (8 nmol/ 5 μl in normal saline), the rat was placed in the lighted room, and time required for the rat to move to the dark room was measured. […]

[2] = system: PD animal models having apoptotic dopaminergic neuronal cells by 6-OHDA; test: Amphetamine-induced asymmetric rotation in 6-OHDA Parkinson's disease animal models; type: in vivo; conditions: 6-OHDA mice; SMPs 5 mg/kg intraperitoneally for 2 weeks; FIG. 2
Description: The protection efficacy of the present peptides was tested by behavior experiments using animal models. The mice with damaged dopaminergic neurons by 6-OHDA were administered with amphetamine to induce asymmetric rotation. Then, the present peptides were examined to recover normal states.
5-week old male mice (SAMTAKO, Korea) were used. Four-week old mice were purchased and adapted for one week, followed by establishing animal models using a stereotaxic system (KOFT, CA, USA). In these experiments, 6-OHDA (3 μg/μl in normal saline) was injected into the desired region (0.0 mm posterior to bregma; 2.0 mm lateral to midline; 3.0 mm ventral to the dura) by use of the stereotaxic system, resulting in establishment of animal models. 6-OHDA was injected into substantial nigra in which neurites of dopminergic neurons are connected and sustained death of dopminergic neurons is well induced. Two weeks after 6-OHDA injection, animals were tested for amphetamine-induced turning behavior (amphetamine at 0.1 mg/kg i.p.). The mice were tested for […]. Animals with net rotational asymmetry of at least 400 full turns were selected for test. 5 mg/kg of SMPs were intraperitoneally administered for 2 weeks and their effects were examined by behavior tests. The asymmetric rotation was rapidly relieved with the lapse of time.

SK-N-SH cells [3] = test: MTT reduction cell viability against amyloid beta; type: cell-based, human; conditions: 10 fM for 2 hr before amyloid beta, 48 hr; FIG. 6b
From the text: The survival rate and nuclear fragmentation of neuronal cells indicating apoptosis of neuron were examined to verify the neuroprotective effects of SMPs against neurotoxic effects of the amyloid beta protein. For identifying mechanisms governing the protective effects against amyloid beta in animal tests, neurotoxic effects and nuclear damages in neuronal cell lines were examined. The substance “cosmo” used in this experiment was obtained by a preparation process identical to that for the substance MD.
The MTT reduction analysis was carried out. The human neuroblastoma cells, SK—N—SH cells (ATCC) were plated on PEI-coated 96-well plates at a density of 40,000 cells/well. The cells were cultured in DMEM supplemented with 10% FBS (fetal bovine serum). 2-hr before experiments, the medium was changed with low serum medium (DMEM with 1% FBS) and the cells were incubated with each test substance. […] Formazan precipitates formed by MTT reduction were dissolved in the solution (0.1 N HCl in anhydrous isopropanol), and absorbance at 570 nm was determined by ELISA
Reader. The value of the control group (only containing solvent) was determined as 100% and that of 0.9% Triton X-100-treated group as 0%. The value of each sample was relatively determined with referring the reference values.

SK-N-SH cells [4] = test: Mitochondrial membrane potential by TMRE staining against amyloid beta; type: cell-based, human; conditions: 10 fM for 2 hr, then 20 μM amyloid beta for 6 hr; FIGS. 8a-8c
From the text: We examined the influence of the present peptides on subcellular mitochondria to play a crucial role in cellular energy generation. It have been already reported that the amyloid beta protein induces elevation of reactive oxygen species in cells and simultaneously results in nuclear fragmentation, dysfunction of mitochondrial membrane and loss of mitochondrial functions. In this regard, we examined the influence of the present peptides on mitochondrial functions relating closely to cell viability.
Using a fluorescent staining with TMRE (tetramethyl rhodamine-ethylester, Molecular Probe), the disruption of mitochondrial membrane potential was measured. The positively charged TMRE is penetrated into mitochondrial membrane with help of mitochondrial membrane potential, and the fluorescent intensities indicate the maintenance of mitochondrial membrane potential. SK—N—SH cells (ATCC) were first treated with 10 fM SMPs for 2 hr and then with 20 μM amyloid beta protein for 6 hr. Afterwards, cells were incubated for 15 min at 37° C. with 100 nM TMRE and the fluorescent intensities were measured using a fluoremetry at excitation wavelength of 549 nm and emission wavelength of 574 nm. The fluorescent images were taken using a fluorescence microscope (Olympus IX70) and CCD camera.

SK-N-SH cells [5] = test: Reactive oxygen species by DCF-DA staining against amyloid beta; type: cell-based, human; conditions: 10 fM for 2 hr, then 20 μM amyloid beta; FIG. 7a
Description: For identifying molecular mechanisms governing neuroprotective effects of the present peptides, reactive oxygen species (ROS) known to involve in neurotoxicity of amyloid beta were analyzed. Using a DCF-DA staining method, quantitative determination of reactive oxygen species was performed and microscopic observation was performed.
SK—N—SH cells (ATCC) were first treated with 10 fM SMPs for 2 hr and then with 20 μM amyloid beta protein. Afterwards, cells were incubated for 30 min at 37° C. with 10 μM DCF-DA (6-carboxy-2′,7′-dichloro-dihydrofluoresceine diacetate, dicarboxym-ethylester) dissolved in HCSS buffer solution (20 mM HEPES, 2.3 mM CaCl2, 120 mM NaCl, 10 mM NaOH, 5 mM KC1, 1.6 mM MgCl2, 15 mM glucose) and 2% Pluronic F-127 (suspension additive).

SK-N-SH cells [6] = test: Nuclear fragmentation by Hoechst 33258 staining against amyloid beta; type: cell-based, human; conditions: 10 fM for 2 hr, then 20 μM amyloid beta for 24 hr; FIG. 6a
Description: The morphological changes of nuclear chromosomes by amyloid beta were observed by staining with DNA-binding fluorochrome bis-benz (Hoechst 33258 dye). SK—N—SH cells were incubated with 10 fM SMPs for 2 hr and then with 20 μM amyloid beta for 24 hr. 0.5-3.0×10^6 cells treated were centrifuged at 300×g for 10 min and washed with PBS, followed by fixation with 50 μl paraformaldehyde for 10 min at room temperature. After washing with PBS, cells were incubated with 16 μg/ml bis-benzimide in PBS (15 μl) for 15 min at room temperature and their 10 μl-aliquot was placed on a slid glass, followed by the observation of apoptotic nuclear chromosome under a fluorescence microscope.

SK-N-SH neuronal cells = test: Neuronal damage caused by high glucose level; type: cell-based, human; conditions: 35 mM glucose, 3 hr; FIG. 9a
Description: Diabetes characterized by high level of glucose causes events to damage cells and tissues. This experiment is to analyze neuroprotective activities of SMPs on SK—N—SH neuronal cells in high level of glucose (35 mM).

p-Akt = p-Akt level on electrophoresis under high glucose; type: cell-based, human; conditions: 35 mM glucose; FIG. 9b
Description: To identify molecular mechanisms governing neuroprotective activities of the present peptides on apoptosis of neuronal cells caused by high glucose level, p-Akt and p-JNK were analyzed on electrophoresis.

| Molecule | prevention of death of dopaminergic neurons (neurotoxicity of 6-OHDA) (dopaminergic neurons) | decline in learning and memory abilities (passive avoidance) [1] | relief of behavior disorders (amphetamine-induced asymmetric rotation) [2] | inhibition of apoptosis of neuronal cells (cell viability, MTT) (SK-N-SH cells [3]) | abnormality of mitochondrial membrane (TMRE fluorescence) (SK-N-SH cells [4]) | levels of reactive oxygen species (SK-N-SH cells [5]) | nuclear fragmentation (SK-N-SH cells [6]) | inhibition of apoptosis caused by high glucose level (SK-N-SH neuronal cells) | level of p-Akt (p-Akt) | effect on reactive oxygen species compared to oligo 1 (SK-N-SH cells [5]) |
| --- | --- | --- | --- | --- | --- | --- | --- | --- | --- | --- |
| COc1ccc2[nH]cc(CCNC(C)=O)c2c1 [melatonin] | effectively prevented | prevent the decline in learning and memory abilities | contribute to the relief of behavior disorders |  |  |  |  |  |  |  |
| GAGAGVGY [SMP-1, GAGAGVGY] |  |  |  | dramatically inhibit apoptosis of neuronal cells | little or no abnormality of mitochondrial membrane | decrease in levels of reactive oxygen species at similar extent | greatly decreased | effectively inhibits apoptosis | highest level of p-Akt |  |
| GVGAGY [SMP-4, GVGAGY] |  |  |  | dramatically inhibit apoptosis of neuronal cells | little or no abnormality of mitochondrial membrane | decrease in levels of reactive oxygen species at similar extent | greatly decreased | effectively inhibits apoptosis |  | a little enhanced effects compared to the oligo 1 |
